In patent US20120183524A1, “MOLECULAR TARGETS FOR TREATMENT OF INFLAMMATION” (University Of Rochester, priority 2007, published 2012):
Non-standard residues stand in square brackets, D forms with d. Residues, ends and D or L forms follow the SMILES beside them. Nle = CCCC[C@H](N)C(=O)O

Tested on: RelB
Assay: RelB, IKKα, NIK and RelA/p65 levels by western blotting in CSE-treated Ramos B-cells
Assay type: cell-based, human
Details: B-cells pretreated with ALLN 25 μM for 20 min, then CSE 0.5% and 1.0% for 1 h; whole cell lysates, immunoblotting
Procedure: MonoMac6-, Ramos B- and WEHI-231-cells were seeded at a density of less than 1×10^6 cells/well (total final volume=2 ml), grown to ˜80-90% confluency in six-well plates containing RPMI 1640 medium with 10% FBS, washed in Ca2+- and Mg2+-free PBS, and then exposed to various treatments in media containing 1% serum. All treatments were performed in duplicate. The cells were treated with CSE (0.5, 1.0 and 5%) for 1 h at 37° C. with 7.5% CO2. At the end of treatment, the cells were washed with cold, sterile Ca2+- and Mg2+-free PBS and were lysed in RIPA buffer as whole lysate (western blotting), and the lysates stored at −80° C. […]
Lung tissue homogenate samples (cytoplasmic and nuclear proteins) were separated on a 7.5%-12% SDS-PAGE. […] The next day, membranes were washed and incubated for 1 h at room temperature with the appropriate secondary antibody linked to horseradish peroxidase (Dako, Santa Barbara, Calif.), bound complexes were detected with the use of the enhanced chemiluminescence method (Jackson Immunology Research, West Grove, Pa.).

CCCC[C@@H](C=O)NC(=O)[C@H](CC(C)C)NC(=O)[C@H](CC(C)C)NC(C)=O [ALLN] (Ac-Leu-Leu-[Nle]-aldehyde)
degradation of RelB in response to CSE: prevented the degradation of RelB
